US20200037609A1, “HERBICIDAL COMPOSITIONS AND METHODS OF USE THEREOF” (The Regents of the University of California, priority 2017, published 2020)
“Also recorded” adds a separate entry of the source. Like-named read-outs stand apart in the source and are kept apart here.

How the values were obtained:
Saccharomyces cerevisiae = test: Yeast growth inhibition assay on plates; format: cell-based; conditions: 250 μM aspterric acid
Experimental: Saccharomyces cerevisiae was plated onto dropout media that lacked isoleucine, leucine, and valine, either with or without 250 μM aspterric acid. Saccharomyces cerevisiae was also plated onto rich media that contained all amino acids along with 250 μM aspterric acid. Plates were incubated at 30° C.

Streptomyces sp. Mg1 = test: Streptomyces growth inhibition assay; format: cell-based; conditions: 250 μM aspterric acid
Experimental: Streptomyces sp. Mg1 was plated onto MS media either with or without 250 μM aspterric acid. Plates were incubated at 28° C.

Arabidopsis thaliana = test: Agar-based plant growth inhibition assay on MS media; format: in vivo; conditions: for growth of A. thaliana on MS media: 50 μM aspterric acid
Experimental: Agar-based growth inhibition assays were carried out on MS media (4.33 g Murashige and Skoog basal medium, 20 g sucrose, and 10 g Agar per liter MS media, pH was adjusted to 5.7 using KOH). Aspterric acid at a final concentration of 50 μM was included in the experimental media. DMSO at final concentration of 1% was used to increase the solubility of aspterric acid. The control MS media contained the same amount of DMSO, but no aspterric acid. Sterilized Arabidopsis thaliana seeds were plated on MS media. After 2 days of cold treatment at 4° C. in the dark, plates were transferred to standard growing condition (16 hour light and 8 hour dark at 22° C.) to geminate. After germination on day 4, the seedlings were transferred to MS media containing 50 μM aspterric acid. MS media containing only DMSO was used as a control. Images were taken at day 8 and day 12 to assay growth inhibition activity of aspterric acid on Arabidopsis thaliana.
(§1) Growth inhibition assay of plants on plates or in the tubes. MS (2.16 g/L Murashige and Skoog basal medium, 8 g/L sucrose, 8 g/L agar) media was used to test the growth inhibition of AA on A. thaliana, Solanum lycopersicum, and Zea mays. A. thaliana, S. lycopersicum, G. max and Z. mays were grown under long day condition (16/8 h light/dark) using cool-white fluorescence bulbs as the light resource at 23° C. AA was dissolved in ethanol and added to the media before inoculating strains or growing plants. The media of control treatment contains the same amount of ethanol, but without AA.

Zea mays = test: Plant growth inhibition assay on MS media; format: in vivo; conditions: 50 μM AA
Experimental: as §1

[1] = tested on: soil-grown Arabidopsis thaliana Col-0 ecotype plants; test: Herbicidal spray experiments with 1 mM aspterric acid in solvent formulations; format: in vivo
Experimental: Aspterric acid was dissolved in the following solvent formulations at a final concentration of 1 mM: (1) 0.5% silwet L-77 and 1% DMSO (floral dip formulation), (2) 2% EtOH, 1% corn oil, and 0.1% tween 80, and (3) 2% EtOH and 0.05% Finale (Finale formulation, contains a final concentration of […]).
For spray treatments with aspterric acid in the various formulations described above, Arabidopsis thaliana Col-0 ecotype plants were grown in soil under long day conditions (16 hours of light followed by 8 hours of dark per day) at 23° C. using cool-white fluorescence bulbs as the light source. Ten-day old seedlings were sprayed with 1 mM aspterric acid dissolved in formulation (1), (2), or (3) as described above. Spray application with the various respective formulations was repeated every 2 days.

[2] = tested on: glufosinate resistant A. thaliana; test: Plant growth inhibition assay by spraying (250 μM AA in Finale + ethanol); format: in vivo, Arabidopsis thaliana; conditions: glufosinate resistant plants without astD, listed as AA
Experimental: Plant growth inhibition assay by spraying. AA was firstly dissolved in ethanol and then added to solvent (0.06 g/L Finale® Bayer Inc.+20 g/L EtOH). The control plants were treated with solvent containing ethanol only. A. thaliana that are resistant to glufosinate (containing the bar gene) were grown under long day conditions (16/8 h light/dark) using cool-white fluorescence bulbs as the light resource at 23° C. Spraying treatments began when the seeds germinated, and was repeated once every two days with approximately 0.4 mL AA solution per time per pot.

[3] = tested on: pollen development in Arabidopsis thaliana; conditions: literature, cited from earlier work

In the case of `CC(C)=C1CC[C@]23CO[C@H](C2)[C@@](O)(C(=O)O)CC[C@@H]13` [aspterric acid], the “growth of S. cerevisiae on media lacking isoleucine, leucine and valine” value (Saccharomyces cerevisiae) is reported as “inhibited the growth”, the “growth of S. cerevisiae on rich media” value (Saccharomyces cerevisiae; all amino acids present) is reported as “grew normally” and the “growth of Streptomyces on MS media” value (Streptomyces sp. Mg1) is reported as “inhibited the growth”. For the same compound, the “growth of A. thaliana on MS media” value (Arabidopsis thaliana) was “significant vegetative growth inhibition”, the “growth of A. thaliana on MS media” value (Arabidopsis thaliana; listed as AA) was “potently inhibit” and the “growth of wild-type A. thaliana on media” value (Arabidopsis thaliana; 100 μM AA) was “strongly inhibited”. For the same compound, the “root development and plant growth of Zea mays on MS media” value (Zea mays) was “effective inhibitor of root development and plant growth”, the “growth after spray, formulation (1)” value ([1]; 1 mM in 0.5% silwet L-77 and 1% DMSO, every 2 days, 18 days after first spray) was “showed growth inhibition” and the “growth after spray, formulation (3)” value ([1]; 1 mM in 2% EtOH and 0.05% Finale, glufosinate-resistant plants, 18 days after first spray) was “significant growth inhibition”. For the same compound, the “growth after spray, formulation (2)” value ([1]; 1 mM in 2% EtOH, 1% corn oil, 0.1% tween 80, every 2 days, 17 days after first spray) was “showed growth inhibition”, the “plant growth after spray of AA in Finale” value [2] was “severely inhibited plant growth; also recorded: strong growth inhibitory phenotype” and the “inhibition of pollen development in A. thaliana (previously reported)” value [3] was “inhibit pollen development”. For the same compound, the “inhibition of pollen development in A. thaliana (previously reported)” value ([3]; listed as AA) was “inhibitory activity towards pollen development”.
